Laboratory results published in patent publication US4631287A, “Aryl and heteroaryl ethers as agents for the treatment of hypersensitive ailments” (USV Pharmaceutical Corp., priority 1985, dated 1986).

Key:
[1] = system: lipoxygenase pathway (5-HETE production in rat neutrophils); experiment: Protocol for Detecting Inhibitors of the Lipoxygenase Pathway (5-HETE production in rat neutrophils); assay type: cell-based; conditions: Neutrophil, 0.05 h, [14C]-arachidonic acid and Calcium Ionophore A23187, 3 minutes at 30° C., 5-HETE produced, read-out: I50
Description: The following protocol describes an assay to detect inhibitors of the lipoxygenase pathway. Such inhibitors are believed to be capable of modulating the biosynthesis of the leukotrienes, a property believed to be useful in treating asthma and inflammatory disease states.
Protocol for Detecting Inhibitors of the Lipoxygenase Pathway
A suspension of rat neutrophils in buffer is incubated for 3 minutes at 30° C. with [^14 C]-arachidonic acid (AA) and Calcium Ionophore A23187. Citric acid (2M) is used to quench the reaction. Following the addition of a trace amount of (^3 H)-5-HETE together with an excess of unlabeled 5-HETE to each tube, the mixture is extracted with chloroform/methanol. The organic layer is washed with dilute acid and an aliquot is transferred to glass tubes and dried. […] After adjusting for the extraction efficiency, the amount (pmole) of [^14 C]-5-HETE in each of the tubes is quantitated by substracting the net pmoles of 5-HETE in the tubes containing buffer alone (blank) from the pmoles of 5-HETE in the tubes containing […]. The ability of the test compounds to modulate the activity of this enzyme is determined by a decrease or increase in the net amount of 5-HETE produced.

[2] = system: leukotriene C4-induced contraction of guinea pig peripheral lung strips; experiment: Protocol for SRS-A Antagonists: leukotriene C4-induced contraction of guinea pig peripheral lung strips; conditions: 0.2 nM leukotriene C4, read-out: concentration required for 50% inhibition of 0.2 nM leukotriene C4-induced contraction
Description: Leukotrienes, the products of the 5-lipoxygenase pathway of arachidonic acid metabolism, are potent contractile agents with a variety of smooth muscle preparations. […] The following protocol describes an in vitro assay used to test compounds which specifically antagonize the actions of leukotrienes.
Protocol for SRS-A (slow reacting substance of anaphylaxis) Antagonists
Peripheral strips of guinea pig lungs are prepared and hung in tissue baths (Metro #ME-5505, 10 ml) according to the published procedure--(Proc. Nat'l Acad. Sci., U.S.A. Volume 77, pp. 4354-4358, 1980). The strips are thoroughly rinsed in Assay Buffer and then connected with surgical silk thread to support rods from the tissue baths. The rods are adjusted in the baths and the strips connected to the pressure transducers (Grass FT 103 or Gould UC-3). The tissue baths are aerated with 95% oxygen--5% carbon dioxide and maintained at 37° C. The assay buffer has been made as follows: for each liter of buffer the following are added to approximately 800 ml of water distilled in glass-6.87 g NaCl, 0.4 g KCl, 2.1 g NaHCO3, 0.14 g NaH2 PO4.H2 O, 0.21 g MgSO4.7H2 O, and 2.0 g D-glucose. […]
Responses of each tissue to a pre-determined concentration of leukotriene are then obtained. […] The intrinsic activity of the compounds, and their effect on leukotriene-induced contractions are then recorded.

[3] = system: SRS-A component of anaphylactic bronchoconstriction; experiment: Bronchial Anaphylaxis in Guinea Pigs with Enhanced Leukotrienes (BAGEL); assay type: in vivo, guinea pig; conditions: 100 mg/kg, i.d., guinea pigs immunized with ovalbumin
Description: Protocol for in vivo Testing of Modulators of SRS-A (slow reacting substances of anaphylaxis)
This test, known as the Bronchial Anaphylaxis in Guinea Pigs with Enhanced Leukotrienes (BAGEL), is based on the procedure published in Agents and Actions, Vol. II, pp. 396-401, 1981, and is performed with guinea pigs actively immunized (14 days) with ovalbumin (2.7 mg/kg, i.p.) and B. pertussis (5×10^9 organisms) as an adjuvant. Prior to challenge with antigen (ovalbumin), the animals are anesthetized and prepared for monitoring pulmonary dynamics by whole body plethysmography. They are treated with an H1 antihistamine (methapyrilene, 2 mg/kg, i.v.) and cyclooxygenase inhibitor (indomethacin; 20 mg/kg, i.p.) in order to enhance the SRS-A component of anaphylactic bronchoconstriction. Bronchoconstriction is quantified as the maximum increase in airway resistance following antigen challenge. The drug is administered either i.p. 10 minutes before challenge, or i.d. 15 minutes before challenge.

| IC50 [1] [nM] | IC50 [2] [nM] | Structure (SMILES) | activity in BAGEL test (bronchoconstriction following antigen challenge) [3] |
| --- | --- | --- | --- |
| 700 | 300 | COc1ccc(OCc2ccc3ccccc3n2)cc1 [2-(p-methoxyphenoxymethyl) quinoline, 2-(p-Methoxyphenoxymethyl) quinoline] | – |
| 500 | 900 | c1ccc(OCc2ccc3ccccc3n2)cc1 [2-Phenoxymethyl quinoline] | highly active |
